Patent US20250296920A1, “FORMULATIONS COMPRISING N-SUBSTITUTED-DIOXOCYCLOBUTENYLAMINO-3-HYDROXY-PICOLINAMIDE COMPOUNDS AND USES THEREOF” (Pfizer Inc., priority 2024, published 2025)
Each block holds one molecule with its values, some of them ahead of it.

Assays:
CCR6 = target: T1, CCR6 (Homo sapiens, UniProt P51684); assay: CCR6+ T cell chemotaxis assay; assay type: cell-based
T1 construct: Human CD4+CCR6+CXCR3-T cells were isolated from leukopak from healthy donors; endogenous in cells
T1 sequence (P51684 1-374): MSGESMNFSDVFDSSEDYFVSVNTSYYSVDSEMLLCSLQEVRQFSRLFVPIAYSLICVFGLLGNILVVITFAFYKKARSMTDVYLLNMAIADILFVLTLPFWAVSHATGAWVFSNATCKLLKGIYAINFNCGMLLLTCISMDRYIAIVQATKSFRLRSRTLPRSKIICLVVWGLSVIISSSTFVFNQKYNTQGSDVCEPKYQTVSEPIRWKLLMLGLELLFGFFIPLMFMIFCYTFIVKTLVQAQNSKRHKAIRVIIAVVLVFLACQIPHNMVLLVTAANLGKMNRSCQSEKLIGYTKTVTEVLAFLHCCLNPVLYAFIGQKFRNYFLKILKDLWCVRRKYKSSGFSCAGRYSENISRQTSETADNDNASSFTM
Source text: Human CD4+CCR6+CXCR3-T cells were isolated from leukopak from healthy donors using EasySep™ Human Th17 Cell Enrichment Kit. […] Day 4 post activation, Dynabeads were removed from the culture. The activated T cells were maintained at 1-2×10^6 cells/mL for 15 days by feeding fresh growth media when needed.
For IC50 determination, the top and bottom of the chemotaxis chamber contained the same concentration of compound. DMSO was kept constant at 0.1% (v/v) in all wells. The final concentration of CCL20 (Peprotech 300-29A) in the bottom chamber is 0.5 nM. The fully assembled chemotaxis plate was placed in a cell culture incubator at 37° C., 5% CO2 for 1 h. After incubation, the top filter was removed, followed by a quick freeze of the bottom chamber at −80° C. for 1 h. The migrated cells in the bottom chamber were stained with CyQUANT dye (Life Technologies, C7026) for cell number determination.
IC50 values for compounds of the present invention (Table 1a) were determined by the non-linear regression analysis of dose response curves.

CXCR2 = target: T2, CXCR2 (Homo sapiens, UniProt P25025); assay: Human neutrophil chemotaxis assay; assay type: cell-based; settings: R = H; read-out: CXCR2 Neutrophil, GRO[…] Chemotaxis IC50
T2 construct: Human neutrophils were purified from freshly drawn human whole blood; endogenous in cells; host or cells: primary human neutrophils from freshly drawn whole blood
T2 sequence (P25025 1-360): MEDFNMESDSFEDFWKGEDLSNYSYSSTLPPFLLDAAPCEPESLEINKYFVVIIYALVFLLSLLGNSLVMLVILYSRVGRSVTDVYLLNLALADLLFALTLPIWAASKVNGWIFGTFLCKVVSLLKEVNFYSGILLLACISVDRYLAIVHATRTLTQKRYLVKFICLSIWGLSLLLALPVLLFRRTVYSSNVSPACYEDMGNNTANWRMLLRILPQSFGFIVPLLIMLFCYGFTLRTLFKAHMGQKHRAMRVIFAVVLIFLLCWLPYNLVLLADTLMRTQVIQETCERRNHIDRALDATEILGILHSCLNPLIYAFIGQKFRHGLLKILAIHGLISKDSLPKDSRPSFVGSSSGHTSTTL
Description: After 30 min, the labeled neutrophils were washed twice in chemotaxis buffer, resuspended as before and used immediately. For the assay, test compounds were tested in a dose-response format to determine IC50. Labeled neutrophils (50 μL) were pre-incubated with diluted test compound (50 μL) for 30 min in a 96-well plate (Greiner). Next, 100 μL of diluted compound was mixed with 100 μL of GROα (Peprotech #300-11, 2 nM) in the bottom portion of the chemotaxis chamber.
The top portion (insert) of the chemotaxis system containing the FluoroBlok porous membrane was then assembled together. 50 μL of the pre-incubated neutrophils were added to the FluoroBlok insert (top portion) and chemotaxis measured by the neutrophils ability to migrate through the membrane towards the specific CXCR2 ligand, GROα.

Compound: Cc1cn(C)nc1[C@H](Nc1c(Nc2ccnc(C(=O)N(C)C)c2O)c(=O)c1=O)C1(C)CC1 [Example 20, (R)-4-((2-(((1,4-Dimethyl-1H-pyrazol-3-yl)(1-methylcyclopropyl)methyl)amino)-3,4-dioxocyclobut-1-en-1-yl)amino)-3-hydroxy-N,N-dimethylpicolinamide]
- T Cell Chemotaxis Selectivity (CCR6; T cell chemotaxis compared to neutrophil chemotaxis): NS** (Not selective for T cell chemotaxis compared to neutrophil chemotaxis)

Compound: Cc1nc([C@H](Nc2c(Nc3ccnc(C(=O)N(C)C)c3O)c(=O)c2=O)C2(C)CCCC2)co1 [drawing 159 (R = H)]
- T Cell Chemotaxis Selectivity (CCR6; R = H): NS* (Not selective for T cell chemotaxis compared to neutrophil chemotaxis)

- IC50 (CCR6; R = H, read-out: CCR6 T cell, CCL20 Chemotaxis IC50): 19.2 nM
- IC50 (CXCR2): 42.1 nM
Compound: CN(C)C(=O)c1nccc(Nc2c(N[C@@H](c3ccn(C)n3)C3(C)CCCC3)c(=O)c2=O)c1O [drawing 157 (R = H)]
